Test results from US20180200232A1, “PHARMACEUTICAL COMPOSITIONS USEFUL FOR THE TREATEMENT OF TISSUE INJURY” (MedRegen, LLC, priority 2015, published 2018).
Where “and” joins values, the source holds several entries; their conditions need not be identical. Equal entries are not always repeated.

Experiments:
[1] = system: colony forming cells (CFCs) in mobilized peripheral blood; assay: CFC assay for stem cell mobilization activity in mice; format: in vivo, C57/B6 mice; details: peripheral blood 3 hours after drug treatment; AMD3100 1.0 mg/kg, Tacrolimus 0.1 mg/kg; vs saline (FIG. 1)
Excerpt: Hematopoietic colony-forming cell (CFC) assays have been used extensively for research and clinical applications in humans and animal models as a way of quantifying and assessing the hematopoietic progenitor content of a cell sample. The stem cell mobilization activity can be measured by using CFC assays in mobilized peripheral blood samples. CFCs are able to divide and differentiate into a colony of more mature cells that can be detected by light microscopy. This allows for the quantification of multipotent stem cell lineages mobilized by pharmaceutical agents.
C57/B6 mice were divided into four treatment groups: 1) control group treated with saline; 2) AMD3100 group (1.0 mg/kg); (3) Tacrolimus group treated with
low-dose (0.1 mg/kg); and (4) AF Combination (containing AMD3100 and Tacrolimus). […] Viable PBMCs were counted and mixed with Methocult GF methylcellulose medium (StemCell Technologies, Vancouver, BC, Canada; Cat.: 03444) containing 100 Uml penicillin and 100 μg/ml streptomycin to give a final density of 1×10^5 viable PBMCs/1.5 ml of medium. […] Colony-forming units (CFUs) were counted using an inverted microscope (Carl Zeiss Microscopy, Thornwood, N.Y.) at ×4. The number of CFUs was determined by dividing the number of viable cells per milliliter by the number of plated cells per well and multiplying by the number of counted CFUs/well.

[2] = system: renal allograft rejection; assay: mismatched kidney transplantation in miniature swine; format: in vivo; details: for Creatinine (serum): at time of death; for effect on survival: drug alone; for Survival: one animal per value; for post-operative day of death or euthanasia: single perioperative course
Excerpt: Animals—SLA-identified donor and recipient swine (weight 50-80 kg) were obtained from Transplantation Biology Research Center of Massachusetts General Hospital, Boston, Mass. The immunogenetic characteristics of these swine have been described previously (30). Two-haplotype full MHC class I and class II mismatched donors and recipients were used for kidney transplantation. […] Institutional review board (Animal Care and Use Committee) approval was obtained for this study. All animal care and procedures were in compliance with the “Principles of Laboratory Animal Care” formulated by the National Society of Medical Research and the “Guide for the Care and Use of Laboratory Animals” prepared by the Institute of Laboratory Animal Resources, National Research Council, and published by the National Academies Press, revised 2011.
Kidney transplantation—The surgical procedure used for kidney transplantation has been described in Kirkman R L, et al. Transplantation in miniature swine. VI. Factors influencing survival of renal allografts. Transplantation 1979; 28: 18-23, the entire disclosure of which is herein incorporated by reference. Briefly, donor kidneys were flushed and persevered in cold saline for 3-6 h before reperfusion. The recipients underwent bilateral nephrectomy. […] The kidney transplantation was completed with a vesicoureteral anastomosis. An indwelling Silastic central venous catheter was placed surgically into the external or internal jugular vein. The catheter facilitated frequent blood sampling for in vitro assays and for monitoring of renal function and whole-blood Tacrolimus levels.
Rejection monitoring—Kidney function was monitored by serial serum creatinine levels. Serum creatinine and blood urea nitrogen levels were analyzed in the Phenotyping Laboratory of the Department of Comparative Medicine at Johns Hopkins. Biopsies were performed on transplant recipients using needle core biopsy via an open or percutaneous ultrasound-guided approach. Renal allograft rejection was defined as sustained rise in serum creatinine to >10 mg/dL or anuria (normal laboratory value for swine serum creatinine is 1-3 mg/dL).
Histopathological examination—Core needle biopsies or wedge biopsies were performed on renal allografts. Scoring of acute rejection was based on the Banff classification; see, e.g., Solez K, et al. Banff 07 classification of renal allograft pathology: Updates and future directions. Am J Transplant 2008; 8: 753-760, the entire disclosure of which is herein incorporated by reference. Masson trichrome staining was done according to standard protocols.
SLA-identified and -mismatched inbred miniature swine were subjected to bilateral nephrectomy and transplantation (FIG. 1B) as described in Sachs D H, et al. Transplantation in miniature swine. I. Fixation of the major histocompatibility complex. Transplantation 1976; 22: 559-567, the entire disclosure of which is herein incorporated by reference. […] VI. Factors influencing survival of renal allografts. Transplantation 1979; 28: 18-23, supra. Five experimental treatment groups were defined as follows, and each group received subcutaneous injections on days 0, 2, 4, 6, and 8 post-transplantation: (1) saline (n=1); (2) low-dose (0.03 mg/kg) Tacrolimus alone (n=3); (3) AMD3100 1 mg/kg alone (n=3); (4) AF Combination treatment (AMD3100 1 mg/kg and Tacrolimus 0.03 mg/kg) (n=1); and (5) AF Combination treatment as in group 4 but with repeat of the 8-day course at 1, 2, and 3 months post-transplantation.

[3] = system: cell migration stimulated by CXCL12; details: cited from earlier work
[4] = molecular target: CXCR4 chomokin receptor (Homo sapiens, UniProt P61073); details: read-out: IC50, binds to and inhibits the CXCR4 receptor; cited from earlier work
[5] = solubility of Tacrolimus powder in water solutions; format: physicochemical

CXCR4 chomokin receptor, sequence (P61073 whole entry): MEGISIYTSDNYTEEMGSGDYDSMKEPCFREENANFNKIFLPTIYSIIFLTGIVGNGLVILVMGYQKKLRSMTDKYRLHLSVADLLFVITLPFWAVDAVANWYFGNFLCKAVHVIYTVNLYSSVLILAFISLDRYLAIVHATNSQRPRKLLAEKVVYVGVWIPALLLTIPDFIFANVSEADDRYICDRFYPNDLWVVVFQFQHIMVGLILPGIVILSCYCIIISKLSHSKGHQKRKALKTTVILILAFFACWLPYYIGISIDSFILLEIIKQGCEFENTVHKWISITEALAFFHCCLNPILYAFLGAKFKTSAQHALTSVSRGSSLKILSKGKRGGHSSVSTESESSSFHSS

Row | Compound | number of colony forming cells (CFCs) [1] | Creatinine (serum) ([2]; no re-treatment, listed as AMD3100 only) | effect on survival [2] | Survival ([2]; no re-treatment, s.c. days 0, 2, 4, 6, 8, listed as AMD3100 only) | post-operative day of death or euthanasia [2] | IC50 [3] [µM] | IC50 [4] [µM] | solubility in water solutions (e.g., saline) [5] | Survival ([2]; Re-Treatment Yes) [days] | serum creatinine level ([2]; animal 21343, POD 40 after repeat dosing) [mg/dL] | serum creatinine level ([2]; animal 21343, POD 56) [mg/dL] | serum creatinine level ([2]; animal 21343, before effect of repeat dosing at 1 month) [mg/dL] | Creatinine (serum) ([2]; Re-Treatment Yes) [mg/dL] | Creatinine (serum) ([2]; no re-treatment, listed as Tacro only) | effect on survival ([2]; listed as FK506) | Survival ([2]; no re-treatment, s.c. days 0, 2, 4, 6, 8, listed as Tacro only) | post-operative day of death ([2]; redosing at 30 days) [POD]
1 | c1cc(CN2CCCNCCNCCCNCC2)ccc1CN1CCCNCCNCCCNCC1 [AMD3100, 1,1′-[1,4-phenylenebis(methylene)]bis¬1,4,8,11-tetraazacyclo-tetradecane] | significantly increased | 22.3 mg/dL and 17.3 mg/dL and 26.4 mg/dL | no prolongation of survival | 10 days and 16 days and 9 days | 9 POD and 10 POD and 16 POD | 0.051 ± 0.017 |  |  |  |  |  |  |  |  |  |  | 
2 | 4F-benzoyl-TN14003 [BKT140] |  |  |  |  |  |  | ~0.001 |  |  |  |  |  |  |  |  |  | 
3 | C=CC[C@@H]1/C=C(\C)C[C@H](C)C[C@H](OC)[C@H]2O[C@@](O)(C(=O)C(=O)N3CCCC[C@H]3C(=O)O[C@H](/C(C)=C/[C@@H]3CC[C@@H](O)[C@H](OC)C3)[C@H](C)[C@@H](O)CC1=O)[C@H](C)C[C@@H]2OC [Tacrolimus] | significantly increased |  | prolongation of survival |  | 27 POD and 28 POD |  |  | poor solubility | 56 | 8.3 | 9.8 | 12.3 | 9.8 | 11.5 mg/dL and 9.9 mg/dL | prolonged survival but was ineffective against late rejection | 28 days and 27 days | 56
